For one data set, the target named is T1, SR3 (Homo sapiens, UniProt Q9HBF4).
T1 construct: Multiple overlapping clones allowed prediction of full-length human ORFs for each protein; EE (N); made in house; host or cells: Sf9 (baculovirus)
T1 sequence (Q9HBF4 1-777): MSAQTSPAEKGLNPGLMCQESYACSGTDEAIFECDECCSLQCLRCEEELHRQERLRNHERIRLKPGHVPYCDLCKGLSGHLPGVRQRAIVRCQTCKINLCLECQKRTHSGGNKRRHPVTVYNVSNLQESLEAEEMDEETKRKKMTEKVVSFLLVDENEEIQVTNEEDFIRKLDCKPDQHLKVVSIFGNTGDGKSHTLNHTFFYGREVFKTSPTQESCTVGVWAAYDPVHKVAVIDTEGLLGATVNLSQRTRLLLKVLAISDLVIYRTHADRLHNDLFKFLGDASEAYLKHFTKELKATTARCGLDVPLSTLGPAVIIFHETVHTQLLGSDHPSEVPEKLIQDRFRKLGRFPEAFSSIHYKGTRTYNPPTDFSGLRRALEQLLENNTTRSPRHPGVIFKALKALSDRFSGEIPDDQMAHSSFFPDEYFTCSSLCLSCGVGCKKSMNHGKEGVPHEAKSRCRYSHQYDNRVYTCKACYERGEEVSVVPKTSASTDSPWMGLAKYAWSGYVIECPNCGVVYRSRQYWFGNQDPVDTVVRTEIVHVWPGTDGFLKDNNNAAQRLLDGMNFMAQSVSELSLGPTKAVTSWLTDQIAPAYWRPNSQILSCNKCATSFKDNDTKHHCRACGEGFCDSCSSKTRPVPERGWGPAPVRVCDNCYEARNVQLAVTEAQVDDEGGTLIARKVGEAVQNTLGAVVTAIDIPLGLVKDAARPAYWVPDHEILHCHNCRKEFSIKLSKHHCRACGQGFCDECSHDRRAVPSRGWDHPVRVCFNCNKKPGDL
Description: Recombinant protein binding to derivatised beads: inhibition by free phosphoinositides (FIG. 11). To be noted: all lipids at one concentration, relative affinity. The source says:
(§1) FIG. 11. Protein binding to derivatised beads: inhibition by free phosphoinositides. Recombinant proteins (in Cos cell lysates or expressed and purified) were bound to PtdIns(3,4,5)P3 or PtdIns(3,4)P2 beads in the presence of various free phosphoinositides (for details, see Methods). For PIP3-E, a full length construct was expressed in Cos cells while a truncated version (residues 40-437) was purified from E.Coli. […] Unless otherwise indicated, the first lane was loaded with a sample equivalent to 1% (Cos cell lysates) or 10% (purified recombinant proteins) of the protein sample that was incubated with beads. As appropriate, tagged proteins were detected with antibodies (anti-myc, anti-GFP, anti-HIS, or anti-EE; see Methods) or by silver-staining (PIP3-G/H-EE, EE-myosin 1F, GST-cytohesin-4, DAPP1, PIP3-E, MEG-2 and CDC42-GAP). For each protein, the data shown are representative of information collected in 4 independent experiments. […]
(§2) Samples of the supernatants were diluted up to 4-fold in lysis buffer, depending on expression levels, and mixed with indicated concentrations of phosphoinositide in 1 ml (FIG. 11) for 10 min on ice. […] Proteins were eluted with SDS sample buffer, separated by SDS-PAGE and detected by immunoblotting [anti-myc (monoclonal 9E10) or anti-GFP (rabbit polyclonal): Clontech). […]

For the next data set, the target named is T2, SR1 (Homo sapiens, UniProt Q8IWB7).
T2 construct: Multiple overlapping clones allowed prediction of full-length human ORFs for each protein; EE (N); made in house; host or cells: Sf9 (baculovirus)
T2 sequence (Q8IWB7 1-410): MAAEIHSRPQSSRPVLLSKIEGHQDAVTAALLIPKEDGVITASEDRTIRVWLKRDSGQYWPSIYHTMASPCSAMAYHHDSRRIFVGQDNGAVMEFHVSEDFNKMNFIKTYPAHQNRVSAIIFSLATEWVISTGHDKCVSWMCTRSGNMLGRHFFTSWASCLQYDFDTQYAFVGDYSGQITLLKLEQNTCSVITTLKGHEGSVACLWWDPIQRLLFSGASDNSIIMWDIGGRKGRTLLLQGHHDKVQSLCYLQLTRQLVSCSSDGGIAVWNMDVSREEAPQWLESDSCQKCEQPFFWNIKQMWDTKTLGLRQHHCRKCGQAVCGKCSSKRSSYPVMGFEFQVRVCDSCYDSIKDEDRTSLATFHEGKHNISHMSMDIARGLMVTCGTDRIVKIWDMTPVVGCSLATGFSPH
The description is as above. To be noted: all lipids at one concentration, relative affinity.
Description: as §1, §2

The target in data set [1] is T3, α-tocopherol-transfer protein (ATTP) (Homo sapiens, UniProt P49638).
T3 construct: His (N); made in house; host or cells: E. coli
T3 sequence (P49638 1-278): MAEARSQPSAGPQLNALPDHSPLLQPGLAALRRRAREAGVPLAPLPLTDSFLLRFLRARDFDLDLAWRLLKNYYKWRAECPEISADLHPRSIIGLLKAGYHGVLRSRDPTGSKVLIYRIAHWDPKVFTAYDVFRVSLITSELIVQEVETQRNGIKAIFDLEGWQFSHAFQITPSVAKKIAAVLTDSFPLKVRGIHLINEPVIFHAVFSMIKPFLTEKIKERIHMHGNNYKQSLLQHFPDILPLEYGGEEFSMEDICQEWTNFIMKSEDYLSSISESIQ
The data set is described as above. To be noted: all lipids at one concentration, relative affinity.
Description: as §1, §2

Data set [2] can be described thus: Solubility of ω-amino phosphatidic acid in solvents. The class given is physicochemical. To be noted: in a range of solvents; chloroform-methanol-water needed. On the procedure:
The immobilised PA [1] was prepared by coupling of the ω-amino phosphatidic acid (−), which was synthesised in 7 steps starting from the optically pure protected glycerol derivative (−), with the N-hydroxysuccinimide (NHS) activated ester agarose resin, Affi-Gel 10, as is depicted in Scheme 1. […] Excess resin (ca. 5 equiv. of NHS-groups) was used, resulting in a loading of 80% [2] onto the beads, as determined by the quantification of recovered by 1H-NMR in the presence of an internal standard.
Finally, the PA amine 33 and PtdIns(4,5)P2 amine 34 were coupled to the N-hydroxysuccinimide (NHS)-activated ester resin, Affi-Gel 10, to afford the corresponding affinity matrices 31 and 32. The PtdIns(4,5)P2 modified matrix was prepared in water using excess NaHCO3, by reacting the activated Affi Gel 10 [resin […] (4 mL)] with the amine 34 ([…]) to give a loading of 4.5 mmol as judged from the recovery of the amino phospholipid 34, that was quantified by 500 MHz ^1H-NMR spectroscopy in the presence of myo-inositol orthoformate 43 as the internal standard.

This note sets out measurements from patent publication US7820803B2, “Immobilized phosphatidic acid probe” (priority 2000, dated 2010).

For `CCCCCCCCCCCCCCCC(=O)OC[C@H](COP(=O)(O)O[C@@H]1[C@H](O)[C@H](OP(=O)(O)O)[C@@H](O)[C@H](O)[C@H]1O)OC(=O)CCCCCCCCCCCCCCC` [PtdIns3P], at SR3, the “displacement of SR3 from PtdIns(3,4)P2 beads by free phosphoinositide” value is given as “most effectively”. Besides, the “displacement of SR1 from PtdIns(3,4)P2 beads by free phosphoinositide” value on SR1 is “most effectively”.
With `CCCCCCCCCCCCCCCC(=O)OC[C@H](COP(=O)(O)OC1[C@H](O)[C@H](O)C(OP(=O)(O)O)[C@H](O)[C@H]1O)OC(=O)CCCCCCCCCCCCCCC` (some centres unmarked) [PtdIns4P], the “displacement of ATTP from PtdIns(3,4)P2 beads by free phosphoinositide” value in data set [1] was “displaced most effectively”.
With `CCCCCCCCCCCCCCCC(=O)OC[C@H](COP(=O)(O)O[C@H]1[C@H](O)[C@@H](OP(=O)(O)O)[C@H](O)[C@@H](O)[C@H]1O)OC(=O)CCCCCCCCCCCCCCC` [PtdIns5P], the “displacement of ATTP from PtdIns(3,4)P2 beads by free phosphoinositide” value in data set [1] was “displaced most effectively”.
`CCCCCCCCCCCCCCCC(=O)O[C@H](COC(=O)CCCCCCCCCCCN)COP(=O)(O)O` [[2], 1-O-(12-Amino)dodecanoyl-2-O-hexadecanoyl-sn-glycer-3-ylphosphate]: in data set [2], the solubility result is on record as “poor solubility”.
